Assay results as given in US12252469B2, “Crystalline forms of (E)-N-hydroxy-3-(1-(phenylsulfonyl)indolin-5-yl)acrylamide” (ANBOGEN THERAPEUTICS INC., priority 2023, dated 2025).

Experiments:
[1] = Long-term stability test of Type A powder; assay type: physicochemical; settings: 25±2° C./60±5% RH
Procedure: (§1) Furthermore, a long-term stability test and an accelerated stability test of Type A (in the form of powder) are executed, and the results thereof are shown in Table 19 and Table 20, respectively. More specifically, for the long-term stability test, the packaging and storage condition: package in double PE bags with silica gel in an aluminum bag and in a paper drum; sample quantity: 0.6 g; temperature: 25±2° C.; % relative humidity: 60±5%; frequency of analysis: 0, 1, 2, 3, 6, 9, 12, 18, 24, 36, 48 and 60 months; duration: 60 months. As for the accelerated stability test, the packaging and storage condition: package in double PE bags with silica gel in an aluminum bag and in a paper drum; sample quantity: 0.6 g; temperature: 40±2° C.; % relative humidity: 75±5%; frequency of analysis: 0, 1, 2, 3 and 6 months; duration: 6 months.

[2] = DVS water uptake; assay type: physicochemical
Procedure: DVS was measured via a SMS (Surface Measurement Systems) DVS Intrinsic or Intrinsic Plus. The relative humidity at 25° C. were calibrated against deliquescence point of LiCl, Mg(NO3)2 and KCl.

[3] = Solid stability evaluation for 1/2/4 weeks;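 note: Solid-state physical and chemical stability tracked by XRPD for form, KF for water content, and HPLC for purity and assay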
Procedure: Type A/B were stored under the conditions of 60° C., 25° C./60% RH, 25° C./92.5% RH and 40° C./75% RH for 1/2/4 weeks for solid stability evaluation. Amorphous was stored under the conditions of 25° C./60% RH and 40° C./75% RH for 1/2/4 weeks for solid stability evaluation. The physical and chemical stability were evaluated by X-ray powder diffraction (XRPD), thermo gravimetric analysis (TGA)/Karl Fischer (KF), differential scanning calorimetry (DSC)/modulated differential I scanning calorimetry (mDSC), high performance liquid chromatography (HPLC) purity and assay, respectively.
XRPD, TGA, DSC and KF in this example are under the same conditions with those described in Example 2.
Agilent 1260 were utilized and detailed chromatographic conditions are listed in

[4] = Accelerated stability test of Type A powder; assay type: physicochemical; settings: 40±2° C./75±5% RH
Procedure: as §1

[5] = all storage conditions, 4 weeks

Question: Which results are given for `O=C(/C=C/c1ccc2c(c1)CCN2S(=O)(=O)c1ccccc1)NO` [Type A, (E)-N-hydroxy-3-(1-(phenylsulfonyl)indolin-5-yl) acrylamide]?
Answer: Appearance ([1]; 0 months): Pale white powder; Assay (HPLC) (98.0%~102.0%) (anhydrous basis) ([1]; 0 months): 101.6%; Related substance (HPLC) ABT-301 dimer (NMT 0.5%) ([1]; 0 months): 0 a/a %; Related substance (HPLC) Individual unknown Impurity (NMT 0.4%) ([1]; 0 months): 0.03%; Related substance (HPLC) Total Impurities (NMT 1.0%) ([1]; 0 months): 0.1%; Water content (KF) (NMT 4.0%) ([1]; 0 months): 2.6%; Appearance ([1]; 1 month): Pale white powder; Assay (HPLC) (98.0%~102.0%) (anhydrous basis) ([1]; 1 month): 100.3%; Related substance (HPLC) ABT-301 dimer (NMT 0.5%) ([1]; 1 month): 0 a/a %; Related substance (HPLC) Individual unknown Impurity (NMT 0.4%) ([1]; 1 month): 0.05%; Related substance (HPLC) Total Impurities (NMT 1.0%) ([1]; 1 month): 0.1%; Water content (KF) (NMT 4.0%) ([1]; 1 month): 2.6%; Appearance ([1]; 2 months): Pale white powder; Assay (HPLC) (98.0%~102.0%) (anhydrous basis) ([1]; 2 months): 100.6%; Related substance (HPLC) ABT-301 dimer (NMT 0.5%) ([1]; 2 months): 0 a/a %; Related substance (HPLC) Individual unknown Impurity (NMT 0.4%) ([1]; 2 months): 0.05%; Related substance (HPLC) Total Impurities (NMT 1.0%) ([1]; 2 months): 0.1%; Water content (KF) (NMT 4.0%) ([1]; 2 months): 2.6%; Appearance ([1]; 3 months): Pale white powder; Assay (HPLC) (98.0%~102.0%) (anhydrous basis) ([1]; 3 months): 101.4%; Related substance (HPLC) ABT-301 dimer (NMT 0.5%) ([1]; 3 months): 0 a/a %; Related substance (HPLC) Individual unknown Impurity (NMT 0.4%) ([1]; 3 months): 0.07%; Related substance (HPLC) Total Impurities (NMT 1.0%) ([1]; 3 months): 0.1%; Water content (KF) (NMT 4.0%) ([1]; 3 months): 2.6%; Appearance ([1]; 6 months): Pale white powder; Assay (HPLC) (98.0%~102.0%) (anhydrous basis) ([1]; 6 months): 100.2%; Related substance (HPLC) ABT-301 dimer (NMT 0.5%) ([1]; 6 months): 0 a/a %; Related substance (HPLC) Individual unknown Impurity (NMT 0.4%) ([1]; 6 months): 0.05%; Related substance (HPLC) Total Impurities (NMT 1.0%) ([1]; 6 months): 0.1%; Water content (KF) (NMT 4.0%) ([1]; 6 months): 2.6%; Appearance ([1]; 9 months): Pale white powder; Assay (HPLC) (98.0%~102.0%) (anhydrous basis) ([1]; 9 months): 100.6%; Related substance (HPLC) ABT-301 dimer (NMT 0.5%) ([1]; 9 months): 0 a/a %; Related substance (HPLC) Individual unknown Impurity (NMT 0.4%) ([1]; 9 months): 0.06%; Related substance (HPLC) Total Impurities (NMT 1.0%) ([1]; 9 months): 0.1%; Water content (KF) (NMT 4.0%) ([1]; 9 months): 2.9%; Appearance ([1]; 12 months): Pale white powder; Assay (HPLC) (98.0%~102.0%) (anhydrous basis) ([1]; 12 months): 100.4%; Related substance (HPLC) ABT-301 dimer (NMT 0.5%) ([1]; 12 months): 0 a/a %; Related substance (HPLC) Individual unknown Impurity (NMT 0.4%) ([1]; 12 months): 0.09%; Related substance (HPLC) Total Impurities (NMT 1.0%) ([1]; 12 months): 0.2%; Water content (KF) (NMT 4.0%) ([1]; 12 months): 2.6%; Appearance ([1]; 18 months): Pale white powder; Assay (HPLC) (98.0%~102.0%) (anhydrous basis) ([1]; 18 months): 100.0%; Related substance (HPLC) ABT-301 dimer (NMT 0.5%) ([1]; 18 months): 0 a/a %; Related substance (HPLC) Individual unknown Impurity (NMT 0.4%) ([1]; 18 months): 0.07%; Related substance (HPLC) Total Impurities (NMT 1.0%) ([1]; 18 months): 0.1%; Water content (KF) (NMT 4.0%) ([1]; 18 months): 2.8%; Appearance ([1]; 24 months): Pale white powder; Assay (HPLC) (98.0%~102.0%) (anhydrous basis) ([1]; 24 months): 99.8%; Related substance (HPLC) ABT-301 dimer (NMT 0.5%) ([1]; 24 months): 0 a/a %; Related substance (HPLC) Individual unknown Impurity (NMT 0.4%) ([1]; 24 months): 0.03%; Related substance (HPLC) Total Impurities (NMT 1.0%) ([1]; 24 months): 0.1%; Water content (KF) (NMT 4.0%) ([1]; 24 months): 2.7%; Appearance ([1]; 36 months): Pale wlite powder; Assay (HPLC) (98.0%~102.0%) (anhydrous basis) ([1]; 36 months): 100.1%; Related substance (HPLC) ABT-301 dimer (NMT 0.5%) ([1]; 36 months): 0 a/a %; Related substance (HPLC) Individual unknown Impurity (NMT 0.4%) ([1]; 36 months): 0.08%; Related substance (HPLC) Total Impurities (NMT 1.0%) ([1]; 36 months): 0.1%; Water content (KF) (NMT 4.0%) ([1]; 36 months): 2.6%; Appearance ([1]; 48 months): Pale white powder; Assay (HPLC) (98.0%~102.0%) (anhydrous basis) ([1]; 48 months): 100.4%; Related substance (HPLC) ABT-301 dimer (NMT 0.5%) ([1]; 48 months): 0 a/a %; Related substance (HPLC) Individual unknown Impurity (NMT 0.4%) ([1]; 48 months): 0.08%; Related substance (HPLC) Total Impurities (NMT 1.0%) ([1]; 48 months): 0.1%; Water content (KF) (NMT 4.0%) ([1]; 48 months): 2.6%; Appearance ([1]; 60 months): Pale white powder; Assay (HPLC) (98.0%~102.0%) (anhydrous basis) ([1]; 60 months): 100.5%; Related substance (HPLC) Individual unknown Impurity (NMT 0.4%) ([1]; 60 months): 0.08%; Related substance (HPLC) Total Impurities (NMT 1.0%) ([1]; 60 months): 0.1%; Water content (KF) (NMT 4.0%) ([1]; 60 months): 2.6%; water uptake (DVS) ([2]; 25° C./80% RH): 0.1396%; form change after DVS test (XRPD) ([2]; after DVS test): no form change; Assay ([3]; 25° C./60% RH, 1 week): 96.4%; Form (XRPD) ([3]; 25° C./60% RH, 1 week): Type A; HPLC purity ([3]; 25° C./60% RH, 1 week): 99.85 Area %; Assay ([3]; 25° C./60% RH, 2 weeks): 94.7%; Form (XRPD) ([3]; 25° C./60% RH, 2 weeks): Type A; HPLC purity ([3]; 25° C./60% RH, 2 weeks): 99.83 Area %; Assay ([3]; 25° C./60% RH, 4 weeks): 96.4%; Form (XRPD) ([3]; 25° C./60% RH, 4 weeks): Type A; HPLC purity ([3]; 25° C./60% RH, 4 weeks): 99.84 Area %; KF (water content) ([3]; 25° C./60% RH, 4 weeks): 2.8030%; Assay ([3]; 40° C./75% RH, 1 week): 96.6%; Form (XRPD) ([3]; 40° C./75% RH, 1 week): Type A; HPLC purity ([3]; 40° C./75% RH, 1 week): 99.84 Area %; Assay ([3]; 40° C./75% RH, 2 weeks): 95.6%; Form (XRPD) ([3]; 40° C./75% RH, 2 weeks): Type A; HPLC purity ([3]; 40° C./75% RH, 2 weeks): 99.84 Area %; Assay ([3]; 40° C./75% RH, 4 weeks): 96.1%; Form (XRPD) ([3]; 40° C./75% RH, 4 weeks): Type A; HPLC purity ([3]; 40° C./75% RH, 4 weeks): 99.85 Area %; KF (water content) ([3]; 40° C./75% RH, 4 weeks): 4.1509%; Assay ([3]; 60° C., 1 week): 96.2%; Form (XRPD) ([3]; 60° C., 1 week): Type A; HPLC purity ([3]; 60° C., 1 week): 99.83 Area %; Assay ([3]; 60° C., 2 weeks): 95.0%; Form (XRPD) ([3]; 60° C., 2 weeks): Type A; HPLC purity ([3]; 60° C., 2 weeks): 99.76 Area %; Assay ([3]; 60° C., 4 weeks): 95.7%; Form (XRPD) ([3]; 60° C., 4 weeks): Type A; HPLC purity ([3]; 60° C., 4 weeks): 99.82 Area %; KF (water content) ([3]; 60° C., 4 weeks): 4.3786%; Assay ([3]; Initial): 95.6%; Form (XRPD) ([3]; Initial): Type A; HPLC purity ([3]; Initial): 99.84 Area %; KF (water content) ([3]; Initial): 2.8220%; Assay ([3]; […], 1 week): 96.3%; Form (XRPD) ([3]; […], 1 week): Type A; HPLC purity ([3]; […], 1 week): 99.85 Area %; Assay ([3]; […], 2 weeks): 95.6%; Form (XRPD) ([3]; […], 2 weeks): Type A; HPLC purity ([3]; […], 2 weeks): 99.84 Area %; Assay ([3]; […], 4 weeks): 96.5%; Form (XRPD) ([3]; […], 4 weeks): Type A; HPLC purity ([3]; […], 4 weeks): 99.85 Area %; KF (water content) ([3]; […], 4 weeks): 3.1154%; HPLC purity change after solid stability [3, 5]: no form change, or obvious HPLC purity change; form change after solid stability [3, 5]: no form change; Appearance ([4]; 0 months): Pale white powder; Assay (HPLC) (98.0%~102.0%) (anhydrous basis) ([4]; 0 months): 101.6%; Related substance (HPLC) ABT-301 dimer (NMT 0.5%) ([4]; 0 months): 0.03 a/a %; Related substance (HPLC) Individual unknown Impurity (NMT 0.4%) ([4]; 0 months): 0.03%; Related substance (HPLC) Total Impurities (NMT 1.0%) ([4]; 0 months): 0.08%; Water content (KF) (NMT 4.0%) ([4]; 0 months): 2.6%; Appearance ([4]; 1 month): Pale white powder; Assay (HPLC) (98.0%~102.0%) (anhydrous basis) ([4]; 1 month): 100.2%; Related substance (HPLC) ABT-301 dimer (NMT 0.5%) ([4]; 1 month): 0.03 a/a %; Related substance (HPLC) Individual unknown Impurity (NMT 0.4%) ([4]; 1 month): 0.05%; Related substance (HPLC) Total Impurities (NMT 1.0%) ([4]; 1 month): 0.12%; Water content (KF) (NMT 4.0%) ([4]; 1 month): 2.6%; Appearance ([4]; 2 months): Pale white powder; Assay (HPLC) (98.0%~102.0%) (anhydrous basis) ([4]; 2 months): 101.2%; Related substance (HPLC) ABT-301 dimer (NMT 0.5%) ([4]; 2 months): 0.03 a/a %; Related substance (HPLC) Individual unknown Impurity (NMT 0.4%) ([4]; 2 months): 0.03%; Related substance (HPLC) Total Impurities (NMT 1.0%) ([4]; 2 months): 0.09%; Water content (KF) (NMT 4.0%) ([4]; 2 months): 2.6%; Appearance ([4]; 3 months): Pale white powder; Assay (HPLC) (98.0%~102.0%) (anhydrous basis) ([4]; 3 months): 101.8%; Related substance (HPLC) ABT-301 dimer (NMT 0.5%) ([4]; 3 months): 0.03 a/a %; Related substance (HPLC) Individual unknown Impurity (NMT 0.4%) ([4]; 3 months): 0.06%; Related substance (HPLC) Total Impurities (NMT 1.0%) ([4]; 3 months): 0.11%; Water content (KF) (NMT 4.0%) ([4]; 3 months): 2.6%; Appearance ([4]; 6 months): Pale white powder; Assay (HPLC) (98.0%~102.0%) (anhydrous basis) ([4]; 6 months): 99.8%; Related substance (HPLC) ABT-301 dimer (NMT 0.5%) ([4]; 6 months): 0.03 a/a %; Related substance (HPLC) Individual unknown Impurity (NMT 0.4%) ([4]; 6 months): 0.06%; Related substance (HPLC) Total Impurities (NMT 1.0%) ([4]; 6 months): 0.13%; Water content (KF) (NMT 4.0%) ([4]; 6 months): 2.6%
